Experimental data reported in patent US11274332B2, “Methods of administering 3,4-diaminopyridine” (SERB SA, priority 2011, dated 2022).

Legend:
[1] = biological target: T1, hKv1.7 (Homo sapiens, UniProt Q96RP8); assay: Whole cell patch clamp inhibition of hKv1.7 current in transiently transfected CHO cells (Example 5); format: cell-based; conditions: 10,000 μM in HB-PS
T1 construct: expressed in transfected cells; host or cells: CHO cells (transient transfection)
Protocol: Chemicals used in solution preparation were purchased from Sigma-Aldrich (St. Louis, Mo.), unless otherwise noted, and were of ACS reagent grade purity or higher. Stock solutions of each test article (100.104 mM and 1.00 mM 3,4-DAP phosphate and 100.023 mM and 336.335 mM N-(4-aminopyridin-3-yl) acetamide HCl) were prepared in sterile water, stored refrigerated and used within one day. […] All test article solutions contained 3% sterile water. The test articles were prepared in sufficient volume to run the assay (typically 50 mL).
CHO cells, transiently transfected with hKv1.7, were cryopreserved in 90% FBS and 10% DMSO. Frozen vials of cells were thawed rapidly in a 37° C. water bath. Cells were transferred to a 15 mL conical tube, 10 mL of growth media (Ham's/F12-PS/10% FBS) was added, the suspension was gently mixed and the tube was centrifuged at approximately 250×g for 5 min. The medium was removed, the cell pellet was resuspended in 20 mL of medium, and cells were triturated to disperse cell clumps. For electrophysiology use, 2 mL of the cell suspension was plated in each 35 mm cell culture dish. Recording began 2-3 hours after plating once the cells settled out of the media and adhered to the bottom of the culture dish. […]
Cells were transferred to the recording chamber and superfused with vehicle control solution. […] Onset and steady state inhibition of hKv1.7 current due to the test article was measured using a pulse pattern with fixed amplitudes (depolarization: +10 mV amplitude, 300 ms duration) repeated at 10-second intervals from a holding potential of −80 mV. Current amplitude was measured at the end of the step to +10 mV. Current was monitored until a new steady state was achieved. […] The IC50 for sustained current was calculated for 3,4-DAP phosphate salt.
For 3,4-DAP phosphate salt, the concentration-response relationship was evaluated at seven concentrations (1, 10, 30, 100, 300, 1000 and 3000 μM) and for N-(4-aminopyridin-3-yl) acetamide HCl salt, the concentration-response relationship was evaluated at three concentrations (100, 1000 and 3000 μM).

[2] = Rat PK study, IV and oral TID amifampridine phosphate (Example 4); format: in vivo; conditions: rat, after amifampridine phosphate
Protocol: The objective of this study was to determine the absolute bioavailability of amifampridine phosphate and the pharmacokinetics of amifampridine and its 3-N-acetyl metabolite upon single-dose IV and single-day oral dose (TID) administration.
Amifampridine phosphate was administered by IV bolus at 0.8 mg/kg (in saline) to 6 rats/sex and by oral gavage (in water) TID (approximately 6 hours apart) at dose levels of 2, 8, and 25 mg/kg/dose (equivalent to 6, 24, and 75 mg/kg/day) to 12 rats/sex/group, with oral Dose 1 given to fasted rats and Dose 2 and 3 with food ad libitum. For IV bolus dose and oral Dose 1 (dose administration No. 1), blood samples were collected from three animals/sex/timepoint at predose and 0.083 (IV only), 0.17, 0.25, 0.33, 0.5, 0.75, 1, 1.25 (IV only), 1.5, 2, 2.5, 3, and 6 hours post-dose; 0.17, 0.5, and 6 hours following the second oral dose (dose administration No. 2); and 0.17, 0.25, 0.33, 0.5, 0.75, 1, 1.5, 2, 3, 4, 6, 8, and 10 hours following the third oral dose (dose administration No. 3). The second and third oral doses were given at 6 and 12 hours, respectively, after the first dose. LC-MS/MS was used to quantify amifampridine, 3-N-acetyl and 4-N-acetyl amifampridine metabolites in rat plasma samples. […] Noncompartmental analysis was applied to the mean plasma amifampridine and 3-N-acetyl metabolite concentration data for male and female rats. […]

T1 sequence (Q96RP8 whole entry): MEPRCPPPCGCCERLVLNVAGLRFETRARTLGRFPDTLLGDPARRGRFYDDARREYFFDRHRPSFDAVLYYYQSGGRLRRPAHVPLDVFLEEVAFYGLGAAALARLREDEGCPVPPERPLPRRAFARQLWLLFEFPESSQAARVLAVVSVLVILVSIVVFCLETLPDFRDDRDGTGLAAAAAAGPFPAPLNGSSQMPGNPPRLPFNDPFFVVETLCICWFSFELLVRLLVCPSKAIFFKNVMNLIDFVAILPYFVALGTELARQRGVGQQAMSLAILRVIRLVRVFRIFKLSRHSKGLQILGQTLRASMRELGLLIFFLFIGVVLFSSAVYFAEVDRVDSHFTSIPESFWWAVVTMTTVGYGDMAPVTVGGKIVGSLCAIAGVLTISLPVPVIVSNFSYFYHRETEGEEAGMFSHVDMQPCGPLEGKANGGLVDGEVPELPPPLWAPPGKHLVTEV

solubility in test formulation [1] | Cmax in plasma [2] [ng/mL] | Structure (SMILES)
visible precipitate was observed |  | CC(=O)Nc1cnccc1N.Cl [N-(4-aminopyridin-3-yl) acetamide HCl]
 | < 25 | CC(=O)Nc1ccncc1N [4-N-acetyl metabolite]
